From patent publication US20230348415A1, “BISPECIFIC ANTAGONISTS OF RETINOL-BINDING PROTEIN 4 THAT STABILIZE TRANSTHYRETIN TETRAMERS, THEIR PREPARATION, AND USE IN THE TREATMENT OF COMMON AGE-RELATED COMORBIDITIES” (The Trustees of Columbia University in the City of New York, priority 2020, published 2023)
Read-outs that look alike come from different tables or passages of the source.

Experiments:
[1] = biological target: RBP4 (Homo sapiens (Human), UniProt P02753); experiment: RBP4 SPA binding assay (displacement of 3H-retinol)
[2] = biological target: RBP4-TTR interaction (Homo sapiens (Human), UniProt P02753); experiment: HTRF RBP4-TTR interaction assay; assay type: biochemical
Description: HTRF Cryptate labeling kit from CisBio (Cisbio, cat #62EUSPEA, Bedfored, MA) was used to label TTR with Eu^3+ Cryptate. The assay was performed in a final assay volume of 16 μl in the buffer that contained 10 mM Tris-HCl pH 7.5, 1 mM DTT, 0.05% NP-40, 0.05% Prionex, 6% glycerol, and 400 mM KF. […] All of the reactions were performed under dim red light in the dark. The plates were read in the SpectraMax M5e Multimode Plate Reader (Molecular Devices, Sunnyvale, CA) after the overnight incubation at 4° C. […] The HTRF signal was expressed as the ratio of fluorescence intensity: Flu668/Flu620×10,000.

[3] = biological target: TTR (Homo sapiens (Human), UniProt P02766); experiment: biochemical; assay type: binding; settings: FITC-coupled TTR FP probe; read-out: TTR FP IC50
Description: Compound binding to TTR was assessed in the fluorescence polarization assay. […] Each well contained 200 nM TTR and 100 nM FITC-diclofenac in the FP buffer (10 mM Tris-HCl pH 7.5, 150 mM NaCl, 0.01% CHAPS, 0.01% Prionex) along with test compounds. Nonspecific binding was determined in the presence of 500 μM unlabeled diclofenac (Sigma-Aldrich). Reactions with test compounds were incubated overnight at 4° C. and FP was measured on SpectramaxM5e plate reader (Molecular Devices).

[4] = fixed 10 nM 3H-retinol, read-out: RBP4 SPA IC50
[5] = 1 μM retinol, read-out: RBP4-TTR HTRF IC50

Cc1cc(C(=O)O)nc(N2CCC(COc3c(F)cccc3C(F)(F)F)C2)n1 (racemic) [Compound (±)-89, (±)-2-(3-((2-Fluoro-6-(trifluoromethyl)phenoxy)methyl)pyrrolidin-1-yl)-6-methylpyrimidine-4-carboxylic Acid]
IC50 [1, 4]: 300 nM
IC50 [2, 5]: 1000 nM
IC50 [3]: 1900 nM

Cc1cc(C(=O)O)nc(N2CCC(OCc3ccccc3C(F)(F)F)C2)n1 (racemic) [(±)-80, (±)-6-Methyl-2-(3-((2-(trifluoromethyl)benzyl)oxy)pyrrolidin-1-yl)pyrimidine-4-carboxylic Acid]
IC50 [1]: > 3000 nM
IC50 [3]: 13000 nM

Cc1cc(C(=O)O)nc(N2CCC(COc3cccnc3C(F)(F)F)C2)n1 (racemic) [Compound (±)-93, (±)-6-Methyl-2-(3-(((2-(trifluoromethyl)pyridin-3-yl)oxy)methyl)pyrrolidin-1-yl)pyrimidine-4-carboxylic Acid]
IC50 [1]: 660 nM
IC50 [3]: > 30000 nM

Cc1cc(C(=O)O)nc(N2CCC(COc3ccccc3C(C)(C)C)C2)n1 (racemic) [Compound (±)-83, (±)-2-(3-((2-(Tert-butyl)phenoxy)methyl)pyrrolidin-1-yl)-6-methylpyrimidine-4-carboxylic Acid]
IC50 [1, 4]: 130 nM
IC50 [2, 5]: 450 nM
IC50 [3]: > 30000 nM

Cc1cc(-c2nn[nH]n2)nc(N2CCC(COc3ccccc3C(F)(F)F)C2)n1 (racemic) [(±)-103, (±)-4-Methyl-6-(2H-tetrazol-5-yl)-2-(3-((2-(trifluoromethyl)phenoxy)methyl)pyrrolidin-1-yl)pyrimidine]
IC50 [1]: 86 nM
IC50 [2]: 1600 nM
IC50 [3]: 1260 nM

Cc1cc(C(=O)O)nc(N2CCC(COc3cc(F)ccc3C(F)(F)F)C2)n1 (racemic) [Compound (±)-88, (±)-2-(3-((5-Fluoro-2-(trifluoromethyl)phenoxy)methyl)pyrrolidin-1-yl)-6-methylpyrimidine-4-carboxylic Acid]
IC50 [1, 4]: 130 nM
IC50 [2, 5]: 300 nM
IC50 [3]: 13000 nM

Cc1cc(C(=O)O)nc(N2CCC(COc3ccc(F)cc3C(F)(F)F)C2)n1 (racemic) [Compound (±)-87, (W)-2-(3-((4-Fluoro-2-(trifluoromethyl)phenoxy)methyl)pyrrolidin-1-yl)-6-methylpyrimidine-4-carboxylic Acid]
IC50 [1, 4]: 240 nM
IC50 [2, 5]: 870 nM
IC50 [3]: 3900 nM

Cc1cc(C(=O)O)nc(N2CCC(COc3ccccc3C(F)(F)F)C2)c1 (racemic) [(±)-95, (±)-4-Methyl-6-(3-((2-(trifluoromethyl)phenoxy)methyl)pyrrolidin-1-yl)picolinic Acid]
IC50 [1, 4]: 130 nM
IC50 [2, 5]: 540 nM
IC50 [3]: 7400 nM

Cc1cc(C(=O)O)nc(N2CC(Oc3ccccc3C(F)(F)F)C2)n1 [Compound 32, 6-Methyl-2-(3-(2-(trifluoromethyl)phenoxy)azetidin-1-yl)pyrimidine-4-carboxylic Acid]
IC50 [3]: 13500 nM

Cc1cc(C(=O)O)nc(N2CC(COc3ccccc3C(F)(F)F)C2)n1 [Compound 38, 6-Methyl-2-(3-((2-(trifluoromethyl)phenoxy)methyl)azetidin-1-yl)pyrimidine-4-carboxylic Acid]
IC50 [1, 4]: 800 nM
IC50 [2, 5]: 6500 nM
IC50 [3]: 26000 nM

Cc1cc(C(=O)O)nc(N2CCC(COc3cc(C(F)(F)F)cc(C(F)(F)F)c3)C2)n1 (racemic) [Compound (±)-91, (k)-2-(3-((3,5-Bis(trifluoromethyl)phenoxy)methyl)pyrrolidin-1-yl)-6-methylpyrimidine-4-carboxylic Acid]
IC50 [1, 4]: 1600 nM
IC50 [3]: > 30000 nM

Cc1cc(C(=O)O)nc(N2CCC(Oc3ccccc3C(F)(F)F)CC2)n1 [Compound 21, 6-Methyl-2-(4-(2-(trifluoromethyl)phenoxy)piperidin-1-yl)pyrimidine-4-carboxylic Acid]
IC50 [1, 4]: 2440 nM
IC50 [2, 5]: 18700 nM
IC50 [3]: 4000 nM

Cc1cc(C(=O)O)nc(N2CCC(COc3ccccc3C3CCCC3)C2)n1 (racemic) [Compound (±)-84, (±)-2-(3-((2-Cyclopentylphenoxy)methyl)pyrrolidin-1-yl)-6-methylpyrimidine-4-carboxylic Acid]
IC50 [1, 4]: 160 nM
IC50 [2, 5]: 540 nM
IC50 [3]: > 30000 nM

O=C(O)c1ccc(F)c(N2CCC(COc3ccccc3C(F)(F)F)C2)c1 (racemic) [(±)-98, (±)-4-Fluoro-3-(3-((2-(trifluoromethyl)phenoxy)methyl)pyrrolidin-1-yl)benzoic Acid]
IC50 [1]: 2350 nM
IC50 [3]: 1880 nM

O=C(O)c1ccnc(N2CCC(COc3ccccc3C(F)(F)F)C2)n1 (racemic) [Compound (±)-94, (±)-2-(3-((2-(Trifluoromethyl)phenoxy)methyl)pyrrolidin-1-yl)pyrimidine-4-carboxylic Acid]
IC50 [1]: 1670 nM
IC50 [3]: 11000 nM

Cc1cc(C(=O)NS(C)(=O)=O)nc(N2CCC(COc3ccccc3C(F)(F)F)C2)n1 (racemic) [(±)-99, (±)-6-Methyl-N-(methylsulfonyl)-2-(3-((2-(trifluoromethyl)phenoxy)methyl)pyrrolidin-1-yl)pyrimidine-4-carboxamide]
IC50 [1, 4]: 81 nM
IC50 [2, 5]: 700 nM
IC50 [3]: 4200 nM

Cc1cc(C(=O)O)nc(N2CCC(COc3ccccc3C3CCCCC3)C2)n1 (racemic) [Compound (±)-85, (±)-2-(3-((2-Cyclohexylphenoxy)methyl)pyrrolidin-1-yl)-6-methylpyrimidine-4-carboxylic Acid]
IC50 [1]: 210 nM
IC50 [3]: > 30000 nM

Cc1cc(C(N)=O)nc(N2CCC(COc3ccccc3C(F)(F)F)C2)n1 (racemic) [Compound (±)-100, (±)-6-Methyl-2-(3-((2-(trifluoromethyl)phenoxy)methyl)pyrrolidin-1-yl)pyrimidine-4-carboxamide]
IC50 [1, 4]: 62 nM
IC50 [2, 5]: 2300 nM
IC50 [3]: > 30000 nM

Cc1cc(C(=O)O)nc(N2CC[C@H](COc3ccccc3C(F)(F)F)C2)n1 [Compound (S)-56, (S)-6-Methyl-2-(3-((2-(trifluoromethyl)phenoxy)methyl)pyrrolidin-1-yl)pyrimidine-4-carboxylic Acid]
IC50 [1, 4]: 150 nM
IC50 [2, 5]: 750 nM
IC50 [3]: 3900 nM

COc1ccc(C(F)(F)F)c(OCC2CCN(c3nc(C)cc(C(=O)O)n3)C2)c1 (racemic) [Compound (±)-90, (k)-2-(3-((5-Methoxy-2-(trifluoromethyl)phenoxy)methyl)pyrrolidin-1-yl)-6-methylpyrimidine-4-carboxylic Acid]
IC50 [1, 4]: > 3000 nM
IC50 [3]: > 30000 nM

Cc1cc(C(=O)O)nc(N2CCC(Oc3ccccc3C(F)(F)F)C2)n1 (racemic) [(±)-27, (±)-6-Methyl-2-(3-(2-(trifluoromethyl)phenoxy)pyrrolidin-1-yl)pyrimidine-4-carboxylic Acid]
IC50 [1]: > 3000 nM
IC50 [3]: 8800 nM

Cc1cc(C(=O)O)nc(N2CC[C@@H](COc3ccccc3C(F)(F)F)C2)n1 [Compound (R)-50, (R)-6-Methyl-2-(3-((2-(trifluoromethyl)phenoxy)methyl)pyrrolidin-1-yl)pyrimidine-4-carboxylic Acid]
IC50 ([1]; read-out: RBP4 SPA IC50): 65 nM
IC50 [2, 5]: 240 nM
IC50 [3]: 3200 nM

CNC(=O)c1cc(C)nc(N2CCC(COc3ccccc3C(F)(F)F)C2)n1 (racemic) [(±)-101, (±)-N,6-dimethyl-2-(3-((2-(trifluoromethyl)phenoxy)methyl)pyrrolidin-1-yl)pyrimidine-4-carboxamide]
IC50 [1, 4]: 89 nM
IC50 [2, 5]: > 30000 nM
IC50 [3]: > 30000 nM

Cc1cc(C(=O)O)nc(N2CCC(COc3cnccc3C(F)(F)F)C2)n1 (racemic) [Compound (±)-92, (±)-6-Methyl-2-(3-(((4-(trifluoromethyl)pyridin-3-yl)oxy)methyl)pyrrolidin-1-yl)pyrimidine-4-carboxylic Acid]
IC50 [1, 4]: 520 nM
IC50 [2, 5]: 3700 nM
IC50 [3]: > 30000 nM

O=C(O)c1cccc(N2CCC(COc3ccccc3C(F)(F)F)C2)n1 (racemic) [Compound (±)-96, (±)-6-(3-((2-(Trifluoromethyl)phenoxy)methyl)pyrrolidin-1-yl)picolinic acid]
IC50 [1]: > 3000 nM
IC50 [3]: 25000 nM

Cc1cc(C(=O)O)nc(N2CCCC(COc3ccccc3C(F)(F)F)C2)n1 (racemic) [(±)-62, (±)-6-Methyl-2-(3-((2-(trifluoromethyl)phenoxy)methyl)piperidin-1-yl)pyrimidine-4-carboxylic Acid]
IC50 [1]: 480 nM
IC50 [2]: 15000 nM
IC50 [3]: 1100 nM

Cc1cc(C(=O)O)nc(N2CCC(COc3cccc(Cl)c3C(F)(F)F)C2)n1 (racemic) [Compound (±)-86, (k)-2-(3-((3-Chloro-2-(trifluoromethyl)phenoxy)methyl)pyrrolidin-1-yl)-6-methylpyrimidine-4-carboxylic Acid]
IC50 [1, 4]: 180 nM
IC50 [3]: 3900 nM

Cc1cc(C(=O)O)nc(N2CCC3(CCN(c4ccccc4C(F)(F)F)C3)C2)n1 (racemic) [(±)-67, (±)-6-Methyl-2-(7-(2-(trifluoromethyl)phenyl)-2,7-diazaspiro[4.4]nonan-2-yl)pyrimidine-4-carboxylic Acid]
IC50 [1]: 260 nM
IC50 [3]: 1600 nM
